Measurements as given in patent publication US20260263403A1, “COMPOSITIONS AND METHODS FOR TREATING TRAUMATIC BRAIN INJURY” (THE CHILDREN'S HOSPITAL OF PHILADELPHIA, priority 2023, published 2026).

Tests used:
[1] = test system: acetate levels in the brain; details: dietary supplement, within one hour of administration; cited from earlier work
[2] = solubility/precipitation of BCAA drink during study preparation; format: physicochemical; details: 60 g/day dose divided twice daily, initial study preparation
Source text: The three BCAAs, valine, isoleucine, and leucine, were combined together in a 1:1:1 ratio for the four treatment doses. […] Given the unknown optimal dose of BCAA supplementation for concussion, doses of 15 g, 30 g, 45 g, and 60 g divided twice daily were chosen as initial treatment doses.

Structure (SMILES)	increase of acetate levels in the brain [1]	precipitation at the highest dose [2]
CC(=O)OCC(COC(C)=O)OC(C)=O [GTA, glyceryl triacetate]	over 15 fold	–
CC(C)C[C@H](N)C(=O)O [leucine]	–	precipitating at a lower concentration than expected
